# According to patent US20110162437A1, “Biomarker for Mitochondrial Toxicity Associated with Phospholipidosis” (priority 2006, published 2011):
# Where “and” joins values, the source holds several entries; their conditions need not be identical. Equal values may be shown once.
# How the values were obtained:
# [1] = system: Male Wistar rats; experiment: PAG measurement by 1H NMR in urine after single oral dose, ratio versus time-matched controls; assay type: in vivo, rat; details: for PAG: urine, individual animals
# Procedure: (§1) All animals received (human) care as specified by Swiss law and in accordance with the “Guide for the care and use of laboratory animals” published by the NIH. Male Wistar rats (5 animals/dose-group) were purchased from RCC (Füllingsdorf, Switzerland) and housed individually. Treated animals were dosed orally by gavage with several doses of test compounds (Table 1). Control animals received the same volume of vehicle as placebo. Necropsy was performed 48 (subgroup A) or 168 hours (subgroup B) after a single administration (=Day 1) and urine samples were collected in metabolism cages at 0 to 4° C. (automatically refrigerated by a Tecniplast sampling/cooling unit (RACK B940, Tecniplast, USA)) at the intervals given in the sampling schedule in Table 2 into labelled sample tubes containing 1 ml of an aqueous Na-azide (1%) solution. Before aliquoting, urine volumes were determined.
# Urine samples were taken on day -7,-2,-1, 1, 2, 3, 4, 5, 6 and 7, whereby Day 1 was the Day of dosing.
# Immediately after reaching the end of the sampling period, the volume was determined and the samples were centrifuged at 3000 u/min (500 g) for 10 minutes.
# Aliquot: Approximately 2 ml was transferred in 1.8 ml cryvials, round bottom, freestanding, with screw caps and septum for NMR-spectroscopic examinations (Bruker Analytik GmbH, Rheinstetten, Germany, Bruker part No. 85372). The vials were stored at −80° C.
# Urine samples were prepared and measured on a Bruker 500 MHz NMR instrument according to the COMET 1H-NMR protocol (Keun, H. C et al., (2002) Physiological variation and analytical reproducibility in metabonomic urinalysis. Chem. Res. Tox. 15, 1380-1386) and as described above. In total 467 urine samples were analyzed. After measurement, all data were processed by XWINMR 3.5.6 (Bruker Biospin AG, Fällanden). Representative spectra are depicted in FIG. 2. Phase correction and baseline correction were performed with NMRPROC 0.3 (T. Ebbels, H. Keun; Imperial College). Spectral data were binned using AMIX 2.6 (Bruker Biospin AG, Fällanden) following the COMET Data Processing & Pattern Recognition protocol (Keun, H. C., et al., (2002) Physiological variation and analytical reproducibility in metabonomic urinalysis. Chem. Res. Tox. 15, 1380-1386). QC check procedures (Dieterle F., Ross A., Schlotterbeck G., Senn H. (2006) Probabilistic Quotient Normalization as Robust Method to Account for Dilution of Complex Biological Mixtures. Application in 1H NMR Metabonomics. Anal. Chem. 78, 4281-4290) were applied on binned data to detect outliers. In total 7 outliers were detected and removed from further analysis. All data were mean-centered and normalized using the probabilistic quotient normalization (Dieterle F., Ross A., Schlotterbeck G., Senn H. (2006) Probabilistic Quotient Normalization as Robust Method to Account for Dilution of Complex Biological Mixtures. Application in 1H NMR Metabonomics. Anal. Chem. 78, 4281-4290.). All binned data were annotated and transferred to the ANT (ANT: Affymetrix NMR Toxicology Data System) database.
# The exact PAG quantification was performed according to following procedure: • Baseline subtraction of spectra • Integration of PAG peaks ((=7.47 ppm, (=7.39 ppm, (=3.79 ppm, and (=3.7 ppm respectively) and Citrate region ((=2.66-2.74 ppm and 2.50-2.58 ppm). • Quotient normalization (Dieterle F., Ross A., Schlotterbeck G., Senn H. (2006) Probabilistic Quotient Normalization as Robust Method to Account for Dilution of Complex Biological Mixtures. Application in 1H NMR Metabonomics. Anal. Chem. 78, 4281-4290.) • Divide each of the PAG bins by its average (all spectra) to correct for different relaxation times and number of protons • Calculate median out of the PAG bins • Calculate ratio versus time-matched controls
# [2] = system: lymphocytes; experiment: Electron microscopic examination of buffy coat lymphocytes for lamellar bodies (determination of phospholipidosis); assay type: in vivo, rat; details: for Result, PL (grade of severity of phospholipidosis) / lymphocytes %, pos. / lymphocytes positive (with lamellar bodies): individual rats
# Procedure: as §1
# Blood samples (as much as possible) were withdrawn from all animals at necropsy at about 48 hours after dosing (subgroup A) and about 168 hours after dosing (subgroup B)
# The samples were collected from the abdominal aorta or by cardiac puncture under terminal anaesthesia (CO2). A total of at least 2 ml blood was required to gain buffy coat (buffy coat=leukocyte band) samples.
# After fixation in 2.5% glutaraldehyde, the buffy coat samples from all animals were embedded in Epon. […] All thin sections were examined ultrastructurally. If possible, 200 lymphocytes per sample were examined for lamellar bodies. The results per sample include the total number of lymphocytes examined, the total number of positive lymphocytes (i.e. with lamellar bodies), the percentage of positive lymphocytes and a grading of severity of phospholipidosis (criteria see table 4)
# [3] = basic pKa value; assay type: physicochemical
# [4] = potential to induce phospholipidosis judged from amphiphilicity and basic pKa; details: from reduced amphiphilicity and basic pKa
# Description: The structural difference between both molecules can be mainly characterized by the exchange of the piperazine against a morpholine moiety in compound 2.
# [5] = rat, low-dosed animals (300 mg/kg)
# [6] = 300 mg/kg/day, necropsy 168 hours after application
# [7] = 300 mg/kg/day, necropsy 48 hours after application, 300 mg/kg/day
# [8] = 300 mg/kg/day, necropsy 168 hours after application, 300 mg/kg/day
# [9] = 1500 mg/kg/day, necropsy 48 hours after application, 1500 mg/kg/day
# [10] = 1500 mg/kg/day, necropsy 168 hours after application, 1500 mg/kg/day
compound,measurement,setting,value
"Cc1ccccc1-c1cc(N2CCN(C)CC2)ncc1N(C)C(=O)C(C)(C)c1cc(C(F)(F)F)cc(C(F)(F)F)c1 [Compound 1, 2-(3,5-Bis-trifluoromethyl-phenyl)-N-methyl-N-[6-(4-methyl-piperazin-1-yl)-4-o-tolyl-pyridin-3-yl]-isobutyramide]",PAG,"[1]; High_Dose group, Time 0 (within 8 hours before treatment)",0.3099 and 0.4951 and 0.2661 and 0.1961 and 0.1580 and 0.3419 and 0.1895 and 0.2711 and 0.3305 and 0.4159
same,PAG,"[1]; High_Dose group, Time 8 (within 8 hours after treatment)",0.8523 and 0.4093 and 0.7986 and 0.5172 and 0.2995 and 0.4361 and 0.5473 and 0.4307 and 1.0174 and 0.3275
same,PAG,"[1]; High_Dose group, Time 24 (within 8 to 24 hours after treatment)",1.7579 and 1.3035 and 1.4190 and 0.4001 and 0.8788 and 1.2898 and 1.4210 and 1.9488 and 1.6305 and 1.2496
same,PAG,"[1]; High_Dose group, Time −16 (1 day before treatment)",0.7486 and 0.5615 and 0.6169 and 0.5637 and 0.4281 and 0.4828 and 0.2993 and 0.4535 and 0.5361 and 0.5442
same,PAG,"[1]; High_Dose group, Time −144 (7 days before treatment)",0.7666 and 0.8823 and 1.0974 and 0.6021 and 1.2709 and 1.0355
same,PAG,"[1]; Low_Dose group, Time 0 (within 8 hours before treatment)",0.3142 and 0.2440 and 0.3422 and 0.2530 and 0.3700 and 0.6319 and 0.3708 and 0.3307 and 0.2336
same,PAG,"[1]; Low_Dose group, Time 8 (within 8 hours after treatment)",1.1423 and 0.5270 and 0.3918 and 0.5331 and 0.6815 and 0.2977 and 0.6756 and 0.7527 and 0.4111 and 0.3688
same,PAG,"[1]; Low_Dose group, Time 24 (within 8 to 24 hours after treatment)",0.6300 and 0.8072 and 1.0165 and 0.7250 and 0.5035 and 0.6637
same,PAG,"[1]; Low_Dose group, Time 48 (2 days after treatment)",0.7584 and 0.6368 and 0.9878 and 0.6461 and 1.0386 and 0.3452 and 0.5698 and 0.3492 and 0.6477
same,PAG,"[1]; Low_Dose group, Time −16 (1 day before treatment)",0.2393 and 0.4349 and 0.5528 and 0.5649 and 0.8171 and 0.3201 and 0.5236 and 0.6045 and 0.4646 and 0.2537
same,PAG,"[1]; Low_Dose group, Time −144 (7 days before treatment)",0.8210 and 1.1559 and 0.9260 and 0.7456 and 0.8081 and 0.6038 and 1.5903 and 1.1241 and 0.9275 and 0.8848
same,increase of mean PAG levels compared to time matched controls,"[1]; rat, high-dosed animals (1500 mg/kg)",4 fold
same,mean PAG levels remaining elevated until the end of the study,"[1]; rat, high-dosed animals (1500 mg/kg), until 168 h",3-4 fold
same,increase of mean PAG levels compared to time matched controls (factor),[1]; [5],two
same,mean levels of PAG at time points later than 72 h,[1]; [5],fall below control samples
same,start of PAG elevation after dosing,"[1]; rat, single oral dose, both dose groups",24 h
same,dose dependant change of PAG levels in urine,"[1]; rat, single oral dose, both dose groups, normalized to time matched controls",significant dose dependant elevation
same,recovery of phospholipidosis 168 hours after application,[2]; 300 mg/kg/day,partial or complete recovery
same,phospholipidosis severity (group assessment),"[2]; 300 mg/kg/day, necropsied 48 hours after application",minimal to slight
same,incidence of affected lymphocytes (range over animals),"[2]; 300 mg/kg/day, necropsied 48 hours after application, data from 3 animals",5-12%
same,incidence of affected lymphocytes (range over animals),[2]; [6],0-1%
same,phospholipidosis severity (group assessment),[2]; [6],minimal or not present
same,recovery of phospholipidosis within 168 hours after application,[2]; 1500 mg/kg/day,no indications of recovery
same,lymphocytes affected (range),"[2]; 1500 mg/kg/day, both time points (48 and 168 hours)",15-31%
same,phospholipidosis severity (group assessment),"[2]; 1500 mg/kg/day, necropsied 48 hours after application",moderate to marked
same,incidence of affected lymphocytes (range over animals),"[2]; 1500 mg/kg/day, necropsied 48 hours after application, data from 4 animals",15-31%
same,phospholipidosis severity (group assessment),"[2]; 1500 mg/kg/day, sacrificed 168 hours after application",moderate to marked
same,incidence of affected lymphocytes (range over animals),"[2]; 1500 mg/kg/day, sacrificed 168 hours after application, data from 4 animals",21-31%
same,"Result, PL (grade of severity of phospholipidosis)",[2]; [7],1 (≦5%: minimal) and 2 (>5-15%: slight) (2×)
same,"lymphocytes %, pos.",[2]; [7],5% and 5.7% and 12.2%
same,lymphocytes positive (with lamellar bodies),[2]; [7],10 and 8 and 23
same,"Result, PL (grade of severity of phospholipidosis)",[2]; [8],1 (≦5%: minimal)
same,"lymphocytes %, pos.",[2]; [8],0% (2×) and 1.1% and 1% and 0.8%
same,lymphocytes positive (with lamellar bodies),[2]; [8],0 (2×) and 2 (2×) and 1
same,"Result, PL (grade of severity of phospholipidosis)",[2]; [9],3 (>15-25%: moderate) (2×) and 4 (>25: marked) (2×) and (2) (>5-15%: slight)
same,"lymphocytes %, pos.",[2]; [9],18.8% and 15.1% and 31% and (5.8) % and 25.7%
same,lymphocytes positive (with lamellar bodies),[2]; [9],36 and 19 and 61 and (3) and 29
same,"Result, PL (grade of severity of phospholipidosis)",[2]; [10],4 (>25: marked) (2×) and 3 (>15-25%: moderate) (2×)
same,"lymphocytes %, pos.",[2]; [10],31% and 21% and 28.2% and 24%
same,lymphocytes positive (with lamellar bodies),[2]; [10],62 and 42 and 29 and 25
same,lymphocytes containing cytoplasmic lamellar bodies (finding in words),"[2]; rats, single oral dose, necropsy 48 or 168 hours after application",seen and occurred dose dependently
same,pKa,[3],7.67
same,potential to induce phospholipidosis,[4],high potential
